Data published in ChEMBL document CHEMBL1201862, “PubChem BioAssay data set” (2004).
Calls of active or inactive are those of the source.

Tests used:
Troponin, cardiac muscle = Troponin, cardiac muscle (Homo sapiens, UniProt P19429+P45379+P63316); experiment: Fluorescence-based biochemical high throughput dose response assay for activators of the calcium sensitivity of cardiac Regulated Thin Filaments (RTF). [Related pubchem assays (depositor defined):AID493008, AID493018, AID504382, AID504383]; format: protein-complex assay
Protein S100-A4 = Protein S100-A4 (Homo sapiens, UniProt P26447); experiment: S100A4-myosin IIA binding inhibitor potency, dose response, biochemical, fluorescence polarization, cherry-picked hits (AID 687001); format: functional
Chain of Protein S100-A4 (P26447 whole entry): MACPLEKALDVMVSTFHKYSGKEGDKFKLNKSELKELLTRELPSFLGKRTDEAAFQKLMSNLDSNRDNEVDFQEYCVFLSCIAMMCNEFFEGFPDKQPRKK

[1] = biological target: T1, Sentrin-specific protease 8 (Homo sapiens, UniProt Q96LD8); format: functional
T1 sequence (Q96LD8 whole entry): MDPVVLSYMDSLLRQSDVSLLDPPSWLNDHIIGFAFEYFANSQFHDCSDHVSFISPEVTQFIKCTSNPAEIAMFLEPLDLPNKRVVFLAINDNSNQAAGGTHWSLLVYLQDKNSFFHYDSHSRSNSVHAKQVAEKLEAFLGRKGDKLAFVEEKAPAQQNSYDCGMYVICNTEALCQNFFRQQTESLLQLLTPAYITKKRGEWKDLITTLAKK

[2] = biological target: T1, Sentrin-specific protease 8; format: functional; remark: listed apart in the source
Vero = experiment: Vero cell toxicity, dose response, cytotoxicity control, plate reader, cherry-pick samples (AID 687020); format: functional, cell-based; conditions: Chlorocebus sabaeus
[3] = miR-122 activators in hepatoma reporter cells, dose response, cell-based, Huh7 psiCHECK-miR122, Renilla luciferase, cherry-picked (AID 651956); format: functional;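 note: huh7 hepatoma cells stably carrying a psiCHECK-2 miR-122 sensor plasmid; renilla luciferase signal reporting endogenous miR-122 activity after 48 h compound exposure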
[4] = inhibitors of TNFa-stimulated NF-kB luciferase reporter, dose response, selectivity assay for EBV LMP1 NF-kB inhibitor project, HEK293 LMP1 reporter cells, dry powder, set 2 (AID 624369); format: functional
[5] = HEK293 cell viability, dose response, counter-screen for EBV LMP1 inhibitor project, dry powder, set 2 (AID 624374); format: functional
[6] = biological target: Mitochondrial peptide methionine sulfoxide reductase (Bos taurus, UniProt P54149); format: functional;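 note: absorbance read-out, biochemical high-throughput dose-response screen for MsrA inhibitors, confirmatory; recombinant bovine MsrA coupled to E. coli TrxB with NADPH and selenocystamine; potency is for inhibitors of MsrA activity on DMSO substrate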
Chain of Mitochondrial peptide methionine sulfoxide reductase (P54149 whole entry): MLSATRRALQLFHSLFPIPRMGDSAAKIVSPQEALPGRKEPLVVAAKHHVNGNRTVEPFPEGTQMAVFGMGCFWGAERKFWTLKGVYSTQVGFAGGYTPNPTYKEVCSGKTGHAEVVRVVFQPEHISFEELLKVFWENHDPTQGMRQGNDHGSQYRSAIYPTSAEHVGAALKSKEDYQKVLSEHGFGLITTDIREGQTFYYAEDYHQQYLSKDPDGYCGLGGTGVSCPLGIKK

[7] = biological target: Aryl hydrocarbon receptor (Homo sapiens, UniProt P35869); conditions: Potency;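 note: confirmatory quantitative high-throughput screen measuring activation of the AhR signaling pathway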
Chain of Aryl hydrocarbon receptor (P35869 whole entry): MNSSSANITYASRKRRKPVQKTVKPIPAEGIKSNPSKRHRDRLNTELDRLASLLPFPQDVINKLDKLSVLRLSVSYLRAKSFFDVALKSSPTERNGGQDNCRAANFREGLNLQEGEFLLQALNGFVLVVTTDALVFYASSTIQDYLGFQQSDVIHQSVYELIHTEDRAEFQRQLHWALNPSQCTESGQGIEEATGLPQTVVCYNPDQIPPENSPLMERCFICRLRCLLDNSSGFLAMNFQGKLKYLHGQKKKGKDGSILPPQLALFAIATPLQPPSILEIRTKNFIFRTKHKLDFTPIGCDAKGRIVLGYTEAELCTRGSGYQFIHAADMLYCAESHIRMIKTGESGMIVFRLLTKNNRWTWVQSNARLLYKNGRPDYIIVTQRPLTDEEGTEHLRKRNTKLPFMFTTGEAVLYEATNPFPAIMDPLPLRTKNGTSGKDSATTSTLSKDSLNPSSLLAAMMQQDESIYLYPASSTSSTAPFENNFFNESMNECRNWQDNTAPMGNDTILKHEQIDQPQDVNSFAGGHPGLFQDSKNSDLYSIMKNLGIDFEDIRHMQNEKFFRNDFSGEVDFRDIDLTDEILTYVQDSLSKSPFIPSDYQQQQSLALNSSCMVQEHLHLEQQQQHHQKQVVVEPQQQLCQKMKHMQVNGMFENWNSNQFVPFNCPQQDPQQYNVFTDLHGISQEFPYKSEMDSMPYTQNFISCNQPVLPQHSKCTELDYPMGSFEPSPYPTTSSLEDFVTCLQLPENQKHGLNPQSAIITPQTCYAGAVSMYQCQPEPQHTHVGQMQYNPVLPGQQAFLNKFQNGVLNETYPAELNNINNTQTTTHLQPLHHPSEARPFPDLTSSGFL

SMILES: Cc1ccc(N2C3=C(C(=O)CC(C)(C)C3)C(c3cn(C)nc3C)C3=C2CC(C)(C)CC3=O)cc1
- EC50 (Troponin, cardiac muscle): 6.28 µM (active)
- AC50 (Protein S100-A4): 2.04 µM (active)

SMILES: CC(NC(=O)COC(=O)c1ccc([N+](=O)[O-])o1)c1ccccc1 (stereo not given)
- IC50 [1]: 7.54 µM (active)
- IC50 [2]: 11.8 µM (active)

SMILES: COc1ccc(CC(=O)NCC2CCCN(Cc3ccc(OC(F)(F)F)cc3)C2)cc1 (stereo not given)
- AC50 (Vero): 17.1 µM (active)

SMILES: C[C@H]1CN([C@@H](C)CO)C(=O)c2cc(C#Cc3ccccc3F)cnc2O[C@@H]1CN(C)C(=O)C1CCCCC1
- AC50 [3]: 565 nM (active)
- AbsAC35 [4]: 66.69 µM

SMILES: Cc1noc(C)c1S(=O)(=O)Nc1ccc2c(c1)C(=O)N([C@@H](C)CO)C[C@H](C)[C@H](CN(C)Cc1ccc(C(F)(F)F)cc1)OCCCC[C@H](C)O2
- AbsAC35 [5]: 149.08 µM

SMILES: N#Cc1c(-n2cccc2/C=N/O)sc2c1CCCC2
- IC50 [6]: 155 µM (inactive)

SMILES: CC(C)N1C(=O)c2ccccc2NS1(=O)=O [BENTAZON]
- AC50 [7]: 79.4 µM (inconclusive)
